Source: ChEMBL document CHEMBL1127700, “Iron(III)-chelating resins. IX. Antibacterial activity of a water-insoluble iron(III)-chelating resin” (1994)

Key:
Escherichia coli = experiment: Tested in vitro for percent inhibition of the growth of Escherichia coli at concentration of 20 uM; assay type: functional
Listeria innocua = experiment: Tested in vitro for percent inhibition of the growth of Listeria inocua at concentration of 20 uM; assay type: functional

SMILES	Growth response (Escherichia coli)	Growth response (Listeria innocua)
CCC(=O)NCCn1ccc(=O)c(O)c1C	0%	14%
C=CC(=O)NCCn1ccc(=O)c(O)c1C	0%	13%
